Patent US8551961B2, “Localized delivery of cardiac inotropic agents” (Massachusetts Institute of Technology, priority 2005, dated 2013)
Entries after “also recorded” stand apart in the source; their conditions may differ.

Test system: Sprague Dawley rats
Test: Pericardial application of dobutamine to the left ventricular free wall in anesthetized rats, hemodynamic recording
Format: in vivo, rat
From the text: Sprague Dawley rats ([…]) were anesthetized with an intraperitoneal injection of ketamine and xylazine. The rat was laid on a heating pad and maintained euthermic with warming lights. A 24 gauge intravenous catheter was placed in the tail vein and Ringer's lactate solution (LR) was infused at 10 cc/hr. The trachea was exposed through a vertical incision and cannulated with a 16 gauge blunt cannula that served as an endotracheal tube. The tube was connected to a ventilator for control of ventilation and respiration. The respiratory rate was set to 60 breaths per minute, inspiratory to expiratory time was set to 1:2 and inspiratory flow was 2 liters per minute. A midline sternotomy was performed, the heart exposed and the pericardium resected. The right carotid artery was dissected clean of fascia and care was taken to preserve the adjacent vagus nerve. A polyethelene (PE-50) cannula was inserted via an arteriotomy into the carotid artery and advanced through the ascending aorta into the left ventricle. This ventricular cannula was connected to a high fidelity pressure transducer and digital data acquisition system to record hemodynamic measures. Heart rate (HR), left ventricular systolic blood pressure (SBP), and the maximum rate of change of blood pressure in the left ventricle during isovolemic contraction (dp/dt max) was all recorded. The dp/dt max is the gold standard index of myocardial contractility.
Following cannulation the rat was stabilized for 30 minutes. Five-second recordings of HR, SBP and dp/dt max were captured every 3 to 5 minutes. SBP and dp/dt max were averaged over all the beats captured in the 5-second interval. Dobutamine (313 mcg/ml), a potent beta agonist inotropic agent, was delivered to the left ventricular free wall through the sternotomy using an infusion pump connected to a 24 gauge IV cannula that was suspended directly over the heart (4 mcg/min, 0.8 ml/hr). […] After 30 minutes the pericardial application of dobutamine was terminated and hemodynamic measurements were recorded for an additional 30 minutes.

With CC(CCc1ccc(O)cc1)NCCc1ccc(O)c(O)c1 (stereo not drawn) [dobutamine] the “Left ventricular systolic blood pressure / systemic blood pressure” value (dobutamine 4 mcg/min for 30 minutes, local pericardial delivery, FIG. 2) was “increased”, the Heart rate (dobutamine 4 mcg/min for 30 minutes, topical application to the heart, FIG. 3) was “increased” and the “Contractility (max dp/dt of left ventricular pressure during isovolemic contraction)” value (dobutamine 313 mcg/ml, 4 mcg/min (0.8 ml/hr) for 30 minutes, applied directly to left ventricular free wall, FIG. 1) was “increased significantly; also recorded: significantly increased”.
